Measured values published in patent US20260125371A1, “METHOD FOR INHIBITING CLOSTRIDIOIDES DIFFICILE SPORE GERMINATION” (UNIVERSITY OF NOTRE DAME DU LAC, priority 2022, published 2026).
Like-named read-outs stand apart in the source and are kept apart here.

Test system: C. difficile strains
Experiment: MIC (microdilution) against panel of 101 C. difficile strains
Type: cell-based, Clostridioides difficile
Conditions: Clostridioides difficile

O=[N+]([O-])c1cnc(-c2nc(-c3ccc(OC4CCCC4)cc3)no2)[nH]1 [Compound 57, 3-(4-(Cyclopentyloxy)phenyl)-5-(4-nitro-1H-imidazol-2-yl)-1,2,4-oxadiazole]
0.125 µg/mL: MIC (strain NR-32904) | MIC (strain RMA24531) | MIC (strain RMA24923)
0.5 µg/mL: MIC (strain NR-49277) | MIC (strain NR-49278) | MIC (strain NR-49279) | MIC (strain NR-49282) | MIC (strain NR-49283) | MIC (strain NR-49284) | MIC (strain NR-49285) | MIC (strain NR-49286) | MIC (strain NR-49293) | MIC (strain NR-49301) | MIC (strain NR-49306) | MIC (strain NR-49307) | MIC (strain NR-49308) | MIC (strain NR-49309) | MIC (strain NR-49312) | MIC (strain NR-49313) | MIC (strain NR-49314) | MIC (strain NR-49315) | MIC (strain NR-49320) | MIC (strain NR-49323) | MIC (strain NR-49326) | MIC (strain NR-49329) | MIC50 (101 C. difficile strains, read-out: MIC50)
1 µg/mL: MIC (strain NR-49288) | MIC (strain NR-49289) | MIC (strain NR-49290) | MIC (strain NR-49291) | MIC (strain NR-49295) | MIC (strain NR-49296) | MIC (strain NR-49297) | MIC (strain NR-49298) | MIC (strain NR-49299) | MIC (strain NR-49300) | MIC (strain NR-49303) | MIC (strain NR-49304) | MIC (strain NR-49311) | MIC (strain NR-49316) | MIC (strain NR-49317) | MIC (strain NR-49321) | MIC (strain NR-49324) | MIC (strain RMA23691) | MIC (strain RMA23828) | MIC (strain RMA27081) | MIC90 (101 C. difficile strains, read-out: MIC90) | MIC90 (101 C. difficile strains, read-out: MIC90 (101 strains))
2 µg/mL: MIC (strain NR-49328) | MIC (strain RMA26675) | MIC (strain RMA27173)
0.25 µg/mL: MIC (strain NR-32897) | MIC (strain NR-32900) | MIC (strain NR-32903) | MIC (strain NR-49280) | MIC (strain NR-49281) | MIC (strain NR-49287) | MIC (strain NR-49319) | MIC (strain NR-49325) | MIC (strain NR-49327)
